Test results as given in patent US11691949B2, “Quinoline sulfonamide compounds and their use as antibacterial agents” (OTAGO INNOVATION LIMITED, priority 2017, dated 2023).
≈ marks a conversion by molar mass, not a printed value. Where two headings read alike, the source gives them in different places.

Columns and labels:
Assay type in all cases: cell-based
[1] = system: S. aureus ATCC 6538; test: MBC by Miles-Misra drop-plate method, S. aureus; settings: Staphylococcus aureus
Method: (§1) Antibacterial susceptibility testing was performed in triplicate (biological) by measuring minimum inhibitory concentrations (MICs) by broth microdilution in 96-well flat bottom microtiter plates (ThermoFisher Scientific, New Zealand). S. uberis ATCC 19436, S. aureus ATCC 6538, or E. coli ATCC 10596 cells grown overnight were diluted to an OD600 of approximately 0.025, so that the final concentration of cells in the MIC assay was approximately 5×10^5 cfu/mL in media as follows: S. uberis; Todd Hewitt Broth (THB), S. aureus; Tryptic Soy Broth (TSB) and Cation Adjusted Muller Hinton Broth (CAMHB), and E. coli; Lysogeny Borth (LB) and CAMHB, before being dispensed into microtiter wells. As required additional sterile Zinc Sulphate (Heptahydrate) was supplemented into the media, so the final concentration was 50 μM. Test compounds were added to starting wells and two-fold serial dilutions were undertaken to generate a range of inhibitor concentrations at a final volume of 200 μl. Media and test compound-free (untreated) controls were included in each microtiter plate in triplicate. After 24 h incubation at 37° C. and 200 rpm, the OD600 of wells were read using a Varioskan Flash plate reader (ThermoFisher Scientific, New Zealand). The MIC was reported as the lowest concentration of the test compound for which no growth occurred, as determined by OD600 readings. The minimum bactericidal concentration (MBC) was determined using the Miles-Misra drop-plate method to measure the viability of cells in response to test compound challenge.

[2] = system: S. uberis ATCC 19436; test: MBC by Miles-Misra drop-plate method, S. uberis; settings: Streptococcus uberis
Method: as §1

[3] = system: E. coli ATCC 10596; test: MIC by broth microdilution, E. coli; settings: Escherichia coli
How it was run: (§2)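 Two-fold serial dilutions were tested in broth at ~5×10^5 cfu/mL: S. aureus in TSB or CAMHB, E. coli in LB or CAMHB, with 50 μM zinc sulphate added as required. After 24 h at 37° C, 200 rpm, MIC was the lowest concentration showing no growth by OD600.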

[4] = system: S. uberis ATCC 19436; test: MIC by broth microdilution, S. uberis; settings: Streptococcus uberis
How it was run: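 This broth microdilution assay used S. uberis ATCC 19436 in Todd Hewitt Broth, with zinc sulphate heptahydrate added where required to a final 50 μM. Inhibitor concentration ranges came from two-fold serial dilutions in 96-well flat bottom plates at 200 μl. Approximately 5×10^5 cfu/mL cells were incubated for 24 h at 37° C. and 200 rpm. Wells were then read at OD600 on a Varioskan Flash reader.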

[5] = system: S. aureus ATCC 6538; test: MIC by broth microdilution, S. aureus; settings: Staphylococcus aureus
How it was run: as §2

[6] = system: E. coli ATCC 10536; test: MBC by Miles-Misra drop-plate method, E. coli; settings: Escherichia coli
Method: as §1

[7] = ATCC6538, No Zinc, read-out: S. aureus ATCC 6538 MBC
[8] = ATCC6538, Zinc (50 μM), read-out: S. aureus ATCC 6538 MBC
[9] = ATCC19436, No Zinc, read-out: S. uberis ATCC 19436 MBC
[10] = ATCC19436, Zinc (50 μM), read-out: S. uberis ATCC 19436 MBC
[11] = ATCC 10536 / ATCC 10596, No Zinc, read-out: E. coli ATCC 10536 MIC
[12] = ATCC 10536 / ATCC 10596, Zinc (50 μM), read-out: E. coli ATCC 10536 MIC
[13] = ATCC19436, No Zinc, read-out: S. uberis ATCC 19436 MIC
[14] = ATCC19436, Zinc (50 μM), read-out: S. uberis ATCC 19436 MIC
[15] = ATCC6538, No Zinc, read-out: S. aureus ATCC 6538 MIC
[16] = ATCC6538, Zinc (50 μM), read-out: S. aureus ATCC 6538 MIC
[17] = ATCC10536, No Zinc, read-out: E. coli ATCC 10536 MBC
[18] = ATCC10536, Zinc (50 μM), read-out: E. coli ATCC 10536 MBC

Row | Structure (SMILES) | MBC [1, 7] [µg/mL] | MBC [1, 8] [µg/mL] | MBC [2, 9] [µg/mL] | MBC [2, 10] [µg/mL] | MIC [3, 11] [µg/mL] | MIC [3, 12] [µg/mL] | MIC [4, 13] [µg/mL] | MIC [4, 14] [µg/mL] | MIC [5, 15] [µg/mL] | MIC [5, 16] [µg/mL] | MBC [6, 17] [µg/mL] | MBC [6, 18] [µg/mL] | further results
1 | O=S(=O)(Nc1cccc2ccc(CNCCCN3CCOCC3)nc12)c1ccc(C(F)(F)F)cc1 [ZDR116, N-(2-(((3-Morpholinopropyl)amino)methyl)quinolin-8-yl)-4-(trifluoromethyl)benzenesulfonamide] | 128 (≈ 252 µM) | > 256 | 64 (≈ 126 µM) | 2 (≈ 3.93 µM) | > 256 | > 256 | 32 (≈ 62.9 µM) | 2 (≈ 3.93 µM) | 64 (≈ 126 µM) | 64 (≈ 126 µM) | > 256 | > 256 | 
2 | CN1CCN(CCCNCc2ccc3cccc(NS(=O)(=O)c4ccc(C(F)(F)F)cc4)c3n2)CC1 [ZDR117, N-(2-(((3-(4-Methylpiperazin-1-yl)propyl)amino)methyl)quinolin-8-yl)-4-(trifluoromethyl)benzenesulfonamide di-trifluoroacetate] |  |  |  |  |  |  |  |  |  |  |  |  | MBC ([1]; ATCC6538, read-out: S. aureus ATCC 6538 MBC, No Zinc): 64 µg/mL (≈ 123 µM); MBC ([1]; ATCC6538, read-out: S. aureus ATCC 6538 MBC, Zinc (50 μM)): 64 µg/mL (≈ 123 µM); MBC ([2]; ATCC19436, read-out: S. uberis ATCC 19436 MBC, No Zinc): 16 µg/mL (≈ 30.7 µM); MBC ([2]; ATCC19436, read-out: S. uberis ATCC 19436 MBC, Zinc (50 μM)): 4 µg/mL (≈ 7.67 µM); MIC ([3]; ATCC 10536 / ATCC 10596, read-out: E. coli ATCC 10536 MIC, No Zinc): 128 µg/mL (≈ 245 µM); MIC ([3]; ATCC 10536 / ATCC 10596, read-out: E. coli ATCC 10536 MIC, Zinc (50 μM)): 32 µg/mL (≈ 61.3 µM); MIC ([4]; ATCC19436, read-out: S. uberis ATCC 19436 MIC, No Zinc): 16 µg/mL (≈ 30.7 µM); MIC ([4]; ATCC19436, read-out: S. uberis ATCC 19436 MIC, Zinc (50 μM)): 4 µg/mL (≈ 7.67 µM); MIC ([5]; ATCC6538, read-out: S. aureus ATCC 6538 MIC, No Zinc): 64 µg/mL (≈ 123 µM); MIC ([5]; ATCC6538, read-out: S. aureus ATCC 6538 MIC, Zinc (50 μM)): 64 µg/mL (≈ 123 µM); MBC ([6]; ATCC10536, read-out: E. coli ATCC 10536 MBC, No Zinc): 256 µg/mL (≈ 491 µM); MBC ([6]; ATCC10536, read-out: E. coli ATCC 10536 MBC, Zinc (50 μM)): 64 µg/mL (≈ 123 µM)
3 | O=S(=O)(Nc1cccc2ccc(/C=N/NC(=S)NCCN3CCOCC3)nc12)c1ccc(C(F)(F)F)cc1 [ZDR119, (E)-N-(2-Morpholinoethyl)-2-((8-((4-(trifluoromethyl)phenyl)sulfonamido)quinolin-2-yl)methylene)hydrazine-1-carbothioamide] | > 256 | 32 (≈ 56.5 µM) | 16 (≈ 28.2 µM) | 1 (≈ 1.76 µM) | > 256 | > 256 | 4 (≈ 7.06 µM) | 0.125 (≈ 0.221 µM) | 4 (≈ 7.06 µM) | 4 (≈ 7.06 µM) | > 256 | > 256 | 
4 | CC(=O)N/N=C/c1ccc2cccc(NS(=O)(=O)c3ccc(C(F)(F)F)cc3)c2n1 [ZDR120, (E/Z)—N-(2-((2-Acetylhydrazineylidene)methyl)quinolin-8-yl)-4-(trifluoromethyl)benzenesulfonamide] | > 256 | > 256 | > 256 | 1 (≈ 2.29 µM) | > 256 | > 256 | 32 (≈ 73.3 µM) | 0.5 (≈ 1.15 µM) | 16 (≈ 36.7 µM) | 16 (≈ 36.7 µM) | > 256 | > 256 | 
5 | O=C(N/N=C/c1ccc2cccc(NS(=O)(=O)c3ccc(C(F)(F)F)cc3)c2n1)c1cccnc1 [ZDR121, (E)-N-(2-((2-Nicotnoylhydrazineylidene)methyl)quinolin-8-yl)-4-(trifluoromethyl)benzenesulfonamide] | 64 (≈ 128 µM) | 256 (≈ 513 µM) | 256 (≈ 513 µM) | 32 (≈ 64.1 µM) | > 256 | > 256 | 32 (≈ 64.1 µM) | 2 (≈ 4 µM) | 16 (≈ 32 µM) | 16 (≈ 32 µM) | > 256 | > 256 | 
6 | O=C(N/N=C/c1ccc2cccc(NS(=O)(=O)c3ccc(C(F)(F)F)cc3)c2n1)c1ccncc1 [ZDR122, (E)-N-(2-((2-Isonicotinoylhydrazneylidene)methyl)quinolin-8-yl)-4-(trifluoromethyl)benzenesulfonamide] | 32 (≈ 64.1 µM) | 128 (≈ 256 µM) | 128 (≈ 256 µM) | 32 (≈ 64.1 µM) | > 256 | > 256 | 32 (≈ 64.1 µM) | 2 (≈ 4 µM) | 16 (≈ 32 µM) | 16 (≈ 32 µM) | > 256 | > 256 | 
